Laboratory results from ChEMBL document CHEMBL4390688, “Accelerating the discovery of DGAT1 inhibitors through the application of parallel medicinal chemistry (PMC)” (Bioorg Med Chem Lett, 2019).
pIC50, pKi: −log10 of the molar value.

Tests used:
[1] = target: T1, Diacylglycerol O-acyltransferase 1 (Mus musculus, UniProt Q9Z2A7)
T1 sequence (Q9Z2A7 whole entry): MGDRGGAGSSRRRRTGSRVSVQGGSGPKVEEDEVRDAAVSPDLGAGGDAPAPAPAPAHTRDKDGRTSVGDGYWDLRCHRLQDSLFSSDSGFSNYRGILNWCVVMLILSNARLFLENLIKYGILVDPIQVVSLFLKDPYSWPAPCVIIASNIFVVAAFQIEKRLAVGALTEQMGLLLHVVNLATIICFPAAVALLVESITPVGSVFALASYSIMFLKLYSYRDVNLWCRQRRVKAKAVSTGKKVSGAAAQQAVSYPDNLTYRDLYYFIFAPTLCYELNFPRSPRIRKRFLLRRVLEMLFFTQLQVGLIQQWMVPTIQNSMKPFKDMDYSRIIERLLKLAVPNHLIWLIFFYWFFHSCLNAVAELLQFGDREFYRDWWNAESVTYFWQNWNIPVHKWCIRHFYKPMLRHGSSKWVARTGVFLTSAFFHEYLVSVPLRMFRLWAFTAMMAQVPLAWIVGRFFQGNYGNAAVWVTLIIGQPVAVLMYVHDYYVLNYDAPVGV
Description: Inhibition of mouse DGAT1

Mus musculus = test: Reduction in lipid excursion in mouse at 10 mg/kg, po QD measured at 18 hrs post dose by lipid tolerance test relative to control; assay type: functional; set-up: scale not given: the % may be the effect or the level left
[2] = target: T2, Diacylglycerol O-acyltransferase 1 (Homo sapiens, UniProt O75907)
T2 sequence (O75907 whole entry): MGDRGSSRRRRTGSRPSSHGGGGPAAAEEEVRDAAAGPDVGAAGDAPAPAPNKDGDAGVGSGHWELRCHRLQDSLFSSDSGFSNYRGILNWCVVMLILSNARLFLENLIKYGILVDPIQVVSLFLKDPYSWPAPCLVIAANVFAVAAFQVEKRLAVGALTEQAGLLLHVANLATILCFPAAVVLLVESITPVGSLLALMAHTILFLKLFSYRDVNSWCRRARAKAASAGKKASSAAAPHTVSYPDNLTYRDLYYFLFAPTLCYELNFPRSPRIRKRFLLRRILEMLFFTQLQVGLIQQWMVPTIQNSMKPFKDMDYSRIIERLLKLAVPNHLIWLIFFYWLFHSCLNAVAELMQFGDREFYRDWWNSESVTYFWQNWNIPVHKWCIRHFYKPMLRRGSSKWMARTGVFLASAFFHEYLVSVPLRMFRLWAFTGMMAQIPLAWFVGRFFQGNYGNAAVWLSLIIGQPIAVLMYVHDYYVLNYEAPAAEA
Description: Inhibition of human DGAT1

[3] = target: T3, Sterol O-acyltransferase 1 (Homo sapiens, UniProt P35610)
T3 sequence (P35610 whole entry): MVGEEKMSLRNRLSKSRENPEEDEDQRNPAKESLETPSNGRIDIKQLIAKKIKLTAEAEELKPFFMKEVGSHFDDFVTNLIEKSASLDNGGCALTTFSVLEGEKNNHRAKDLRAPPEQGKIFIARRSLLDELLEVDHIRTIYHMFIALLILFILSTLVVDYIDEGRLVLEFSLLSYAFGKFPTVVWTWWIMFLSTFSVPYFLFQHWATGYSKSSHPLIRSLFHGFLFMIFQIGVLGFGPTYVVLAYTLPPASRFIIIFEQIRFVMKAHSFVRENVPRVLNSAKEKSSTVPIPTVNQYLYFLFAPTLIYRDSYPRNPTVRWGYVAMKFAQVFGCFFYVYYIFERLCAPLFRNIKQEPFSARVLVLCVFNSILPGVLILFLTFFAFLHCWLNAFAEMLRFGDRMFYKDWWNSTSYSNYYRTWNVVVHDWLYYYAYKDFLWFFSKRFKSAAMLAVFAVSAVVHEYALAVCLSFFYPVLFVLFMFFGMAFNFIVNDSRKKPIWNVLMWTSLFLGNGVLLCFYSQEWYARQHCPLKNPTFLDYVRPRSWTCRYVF
Description: Inhibition of human ACAT1

[4] = target: Voltage-gated inwardly rectifying potassium channel KCNH2 (Homo sapiens, UniProt Q12809); test: Inhibition of human ERG
Adenosine receptor A2a = Adenosine receptor A2a (Homo sapiens, UniProt P29274); test: Activity against human A2AR assessed as inhibition of cAMP accumulation by cAMP functional assay
[5] = Distribution coefficient, log D of compound; assay type: physicochemical; details: octanol/water

Sequence of Voltage-gated inwardly rectifying potassium channel KCNH2 (Q12809 whole entry): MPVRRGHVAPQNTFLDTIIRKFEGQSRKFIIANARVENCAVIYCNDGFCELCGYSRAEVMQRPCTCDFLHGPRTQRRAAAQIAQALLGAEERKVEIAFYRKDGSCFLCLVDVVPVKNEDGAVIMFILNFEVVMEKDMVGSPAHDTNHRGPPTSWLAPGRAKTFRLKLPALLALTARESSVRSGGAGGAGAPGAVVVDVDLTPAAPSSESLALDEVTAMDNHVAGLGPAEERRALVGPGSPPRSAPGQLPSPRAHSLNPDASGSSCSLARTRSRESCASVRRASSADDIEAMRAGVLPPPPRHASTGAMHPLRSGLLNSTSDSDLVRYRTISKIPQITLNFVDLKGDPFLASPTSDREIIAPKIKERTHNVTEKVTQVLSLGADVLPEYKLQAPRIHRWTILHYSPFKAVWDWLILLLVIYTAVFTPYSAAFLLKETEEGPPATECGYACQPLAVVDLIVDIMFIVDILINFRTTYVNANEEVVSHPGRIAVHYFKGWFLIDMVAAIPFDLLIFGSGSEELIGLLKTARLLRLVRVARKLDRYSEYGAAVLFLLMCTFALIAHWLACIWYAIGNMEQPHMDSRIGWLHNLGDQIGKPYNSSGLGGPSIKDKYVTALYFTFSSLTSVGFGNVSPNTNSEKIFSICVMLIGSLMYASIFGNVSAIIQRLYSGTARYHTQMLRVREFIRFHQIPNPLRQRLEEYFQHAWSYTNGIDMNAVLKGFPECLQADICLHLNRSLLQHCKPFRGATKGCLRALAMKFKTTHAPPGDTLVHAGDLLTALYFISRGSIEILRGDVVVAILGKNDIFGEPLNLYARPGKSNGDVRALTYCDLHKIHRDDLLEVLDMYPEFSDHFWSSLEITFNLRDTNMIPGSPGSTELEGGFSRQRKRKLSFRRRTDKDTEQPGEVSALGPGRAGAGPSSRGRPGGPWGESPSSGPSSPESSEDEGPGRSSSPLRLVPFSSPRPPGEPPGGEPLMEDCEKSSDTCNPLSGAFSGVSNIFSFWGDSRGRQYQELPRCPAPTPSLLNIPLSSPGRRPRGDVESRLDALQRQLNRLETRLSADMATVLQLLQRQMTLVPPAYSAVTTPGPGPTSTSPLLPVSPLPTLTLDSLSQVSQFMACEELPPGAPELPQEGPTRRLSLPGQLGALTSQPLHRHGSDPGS
Sequence of Adenosine receptor A2a (P29274 whole entry): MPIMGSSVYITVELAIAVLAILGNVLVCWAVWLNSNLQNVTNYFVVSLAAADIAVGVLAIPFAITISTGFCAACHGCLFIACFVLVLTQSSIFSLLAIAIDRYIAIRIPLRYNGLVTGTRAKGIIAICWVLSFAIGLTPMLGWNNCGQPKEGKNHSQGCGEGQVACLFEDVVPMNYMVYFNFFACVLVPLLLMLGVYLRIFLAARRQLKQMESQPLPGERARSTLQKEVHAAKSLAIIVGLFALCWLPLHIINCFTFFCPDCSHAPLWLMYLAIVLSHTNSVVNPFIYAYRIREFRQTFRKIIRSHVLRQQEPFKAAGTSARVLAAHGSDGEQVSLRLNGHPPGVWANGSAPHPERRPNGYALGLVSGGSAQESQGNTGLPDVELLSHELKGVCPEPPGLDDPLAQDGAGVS

Row | pIC50 [1] | pIC50 [2] | pIC50 [3] | pKi (Adenosine receptor A2a) | logD [5] | Structure (SMILES) | Activity (Mus musculus) [%] | pKi [4]
1 | 8.55 | 8.82 | < 5.70 |  |  | O=C(O)[C@H]1CC[C@@H](Oc2ccc(-c3ccc(-c4nc5cc(Cl)ccc5[nH]4)cn3)cn2)CC1 | 144 | 5.27
2 |  | 6.90 |  |  |  | FC(F)(F)c1ccc2[nH]c(-c3ccc(-c4cccnc4)cc3)nc2c1 |  | 5.85
3 | 6.57 |  | < 5.00 |  |  | O=C(O)C[C@H]1CC[C@H](OC2CCN(c3ccc(-c4nc5cc(Cl)cnc5[nH]4)cn3)CC2)CC1 |  | 
4 |  |  | < 5.00 | < 5.00 |  | O=C(O)C1CCC2(CCN(c3ccc(-c4nc5cc(C(F)(F)F)ccc5[nH]4)cn3)CC2)OC1 (racemic) |  | 
5 |  | 7.19 | 5.88 |  |  | FC(F)(F)c1ccc2[nH]c(-c3ccc(-c4ccc(N5CCOCC5)nc4)cc3)nc2c1 |  | 4.88
6 | 7.48 | 8.35 | < 5.70 |  | 1.56 | CC1(C)CN(c2ccc(-c3ccc(-c4nc5cc(Cl)ccc5[nH]4)cn3)cn2)CCC1CC(=O)O (racemic) | 66 | 5.76
7 |  |  | < 5.00 | < 5.00 |  | O=C(O)[C@H]1CC[C@@H](OC2CCN(c3ccc(-c4nc5cc(F)ccc5[nH]4)cn3)CC2)CC1 |  | 
8 | 6.61 | 7.66 | < 5.70 |  | 1.29 | O=C(O)C1CC(Nc2ccc(-c3ccc(-c4nc5cc(Cl)ccc5[nH]4)cn3)cn2)C1 (racemic) |  | < 4.22
9 | 8.82 |  |  |  |  | O=C(O)C[C@H]1CC[C@@H](Oc2ccc(-c3ccc(-c4nc5cc(C(F)(F)F)ccc5[nH]4)cn3)cn2)CC1 |  | 5.39
10 |  |  |  |  | 2.08 | O=C(O)C[C@H]1CC[C@H](c2ccc(-c3ccc(-c4nc5cc(Cl)ccc5[nH]4)cc3)cc2)CC1 |  | 
11 |  | 5.88 |  |  |  | FC(F)(F)c1ccc2[nH]c(-c3ccc(-c4ccccc4)cc3)nc2c1 |  | 5.64
12 | 5.72 |  |  |  |  | Cc1ccc2[nH]c(-c3ccc(N4CCC(O[C@H]5CC[C@H](CC(=O)O)CC5)CC4)nc3)nc2n1 |  | 
13 | 7.70 | 8.54 | < 5.00 |  | 1.33 | O=C(O)C1(CNc2ccc(-c3ccc(-c4nc5cc(Cl)ccc5[nH]4)cn3)cn2)CC1 | 0 | 4.92
14 |  | 7.15 | 5.57 |  |  | CN1CCN(c2ccc(-c3ccc(-c4nc5cc(C(F)(F)F)ccc5[nH]4)cc3)cn2)CC1 |  | 6.37
15 | 8.30 | 8.77 | 5.76 |  | 1.24 | O=C(O)C1(COc2ccc(-c3ccc(-c4nc5cc(Cl)ccc5[nH]4)cn3)cn2)CCC1 | 89 | 4.70
16 | 7.52 | 8.44 | < 5.70 |  | 1.19 | O=C(O)C1CC1COc1ccc(-c2ccc(-c3nc4cc(Cl)ccc4[nH]3)cn2)cn1 (racemic) | 91 | 4.72
17 | 7.62 | 8.46 | < 5.70 |  | 1.16 | O=C(O)C1CC(Oc2ccc(-c3ccc(-c4nc5cc(Cl)ccc5[nH]4)cn3)cn2)C1 (racemic) | 54 | 4.69
18 | 6.97 | 7.99 | < 5.70 |  | 1.48 | O=C(O)CC1CCN(c2ccc(-c3ccc(-c4nc5cc(Cl)ccc5[nH]4)cn3)cn2)CC1 | 62 | 5.28
19 | 7.44 | 8.28 | < 5.00 |  | 1.16 | O=C(O)C1(COc2ccc(-c3ccc(-c4nc5cc(Cl)ccc5[nH]4)cn3)cn2)COC1 | 87 | 5.18

Row | pIC50 [1] | pIC50 [2] | pIC50 [3] | pKi (Adenosine receptor A2a) | logD [5] | Structure (SMILES) | Activity (Mus musculus) [%] | pKi [4]
20 | 8.77 |  |  |  |  | O=C(O)C[C@H]1CC[C@@H](Oc2ccc(-c3ccc(-c4nc5cc(Cl)ccc5[nH]4)cn3)cn2)CC1 |  | 5.52
21 | 6.28 |  | < 5.00 |  |  | N#Cc1ccc2[nH]c(-c3ccc(N4CCC(O[C@H]5CC[C@H](CC(=O)O)CC5)CC4)nc3)nc2c1 |  | 5.52
22 | 8.74 |  |  |  | 2.31 | O=C(O)C[C@H]1CC[C@H](c2ccc(-c3ccc(-c4nc5cc(C(F)(F)F)ccc5[nH]4)cc3)cc2)CC1 |  | 
23 | 8.59 | 8.77 | < 5.70 |  |  | O=C(O)C[C@H]1CC[C@@H](Oc2ccc(-c3ccc(-c4nc5cc(F)c(F)cc5[nH]4)cn3)cn2)CC1 |  | 4.72
24 | 7.96 | 8.51 | 5.78 |  | 1.35 | O=C(O)C1(COc2ccc(-c3ccc(-c4nc5cc(Cl)ccc5[nH]4)cn3)cn2)CC1 | 50 | 4.97
25 | 8.64 |  |  |  |  | O=C(O)C[C@H]1CC[C@@H](Oc2ccc(-c3ccc(-c4nc5c(F)cc(F)cc5[nH]4)cn3)cn2)CC1 |  | 5.42
26 | 8.23 | 8.49 | 5.79 |  |  | O=C(O)C[C@H]1CC[C@@H](Oc2ccc(-c3ccc(-c4nc5cc(Cl)cnc5[nH]4)cn3)cn2)CC1 |  | 5.07
27 | 7.11 |  | < 5.00 |  |  | COc1ccc2[nH]c(-c3ccc(N4CCC(O[C@H]5CC[C@H](CC(=O)O)CC5)CC4)nc3)nc2n1 |  | 4.69
28 |  | 7.42 | < 5.00 |  |  | N#Cc1ccc(-c2ccc(-c3nc4cc(C(F)(F)F)ccc4[nH]3)cc2)cn1 |  | < 4.22
29 |  | 7.01 | 5.85 |  |  | N#Cc1ccc(-c2ccc(-c3nc4cc(C(F)(F)F)ccc4[nH]3)cc2)cc1 |  | 6.21
30 |  | 7.18 | 5.87 |  |  | CN1CCN(c2ccc(-c3ccc(-c4nc5cc(C(F)(F)F)ccc5[nH]4)cc3)cc2)CC1 |  | 6.09
31 | 7.08 | 8.02 | < 5.00 |  | 1.3 | O=C(O)c1ccc(CNc2ccc(-c3ccc(-c4nc5cc(Cl)ccc5[nH]4)cn3)cn2)cc1 |  | 4.92
32 |  | 6.35 |  |  |  | Oc1ccc(-c2ccc(-c3nc4cc(C(F)(F)F)ccc4[nH]3)cc2)cc1 |  | 5.78
33 | 8.20 | 8.59 | 5.71 |  | 1.39 | O=C(O)[C@H]1CC[C@H](Oc2ccc(-c3ccc(-c4nc5cc(Cl)ccc5[nH]4)cn3)cn2)CC1 | 83 | 5.45
34 | 8.85 | 9.15 | 6.01 |  | 1.44 | CC(C)(COc1ccc(-c2ccc(-c3nc4cc(Cl)ccc4[nH]3)cn2)cn1)C(=O)O |  | 5.09
35 | 7.44 | 8.35 | < 5.70 |  | 1.43 | CC1(C(=O)O)CCCN(c2ccc(-c3ccc(-c4nc5cc(Cl)ccc5[nH]4)cn3)cn2)C1 (racemic) | 63 | 5.70
36 | 7.32 | 8.27 | < 5.70 |  | 1.37 | O=C(O)C1CCC(Nc2ccc(-c3ccc(-c4nc5cc(Cl)ccc5[nH]4)cn3)cn2)CC1 (racemic) | 70 | 5.43
37 | 7.68 | 8.38 | < 5.00 |  | 1.51 | O=C(O)C1CCCCC1Nc1ccc(-c2ccc(-c3nc4cc(Cl)ccc4[nH]3)cn2)cn1 (racemic) | 0 | 5.45

Row | Structure (SMILES) | pIC50 [1] | pIC50 [2] | pIC50 [3] | pKi (Adenosine receptor A2a) | logD [5] | Activity (Mus musculus) [%] | pKi [4]
38 | O=C(O)C[C@H]1CC[C@H](OC2CCN(c3ccc(-c4nc5cc(C(F)(F)F)cnc5[nH]4)cn3)CC2)CC1 | 6.90 | 7.63 | < 5.00 |  |  |  | 4.92
